Experimental data reported in US20250367166A1, “NEXT GENERATION DIPROVOCIMS THAT ACTIVATE THE INNATE AND ADAPTIVE IMMUNE RESPONSE” (The Scripps Research Institute, priority 2022, published 2025).
Like-named read-outs stand apart in the source and are kept apart here.

Assays:
[1] = target: TLR1/TLR2 (Mus musculus, UniProt Q9EPQ1+Q9QUN7); assay: TNF-α release from thioglycolate-elicited mouse peritoneal macrophages (ELISA); settings: for Emax: 4 h, read-out: Efficacy (magnitude) of response versus diprovocim-1 (100%), mouse macrophages; for EC50: read-out: EC50 (nM) (mouse): EC50 TNF-α release from mouse macrophages
Sequence of TLR1/TLR2 (Mus musculus, UniProt Q9EPQ1+Q9QUN7) (Q9EPQ1 26-795): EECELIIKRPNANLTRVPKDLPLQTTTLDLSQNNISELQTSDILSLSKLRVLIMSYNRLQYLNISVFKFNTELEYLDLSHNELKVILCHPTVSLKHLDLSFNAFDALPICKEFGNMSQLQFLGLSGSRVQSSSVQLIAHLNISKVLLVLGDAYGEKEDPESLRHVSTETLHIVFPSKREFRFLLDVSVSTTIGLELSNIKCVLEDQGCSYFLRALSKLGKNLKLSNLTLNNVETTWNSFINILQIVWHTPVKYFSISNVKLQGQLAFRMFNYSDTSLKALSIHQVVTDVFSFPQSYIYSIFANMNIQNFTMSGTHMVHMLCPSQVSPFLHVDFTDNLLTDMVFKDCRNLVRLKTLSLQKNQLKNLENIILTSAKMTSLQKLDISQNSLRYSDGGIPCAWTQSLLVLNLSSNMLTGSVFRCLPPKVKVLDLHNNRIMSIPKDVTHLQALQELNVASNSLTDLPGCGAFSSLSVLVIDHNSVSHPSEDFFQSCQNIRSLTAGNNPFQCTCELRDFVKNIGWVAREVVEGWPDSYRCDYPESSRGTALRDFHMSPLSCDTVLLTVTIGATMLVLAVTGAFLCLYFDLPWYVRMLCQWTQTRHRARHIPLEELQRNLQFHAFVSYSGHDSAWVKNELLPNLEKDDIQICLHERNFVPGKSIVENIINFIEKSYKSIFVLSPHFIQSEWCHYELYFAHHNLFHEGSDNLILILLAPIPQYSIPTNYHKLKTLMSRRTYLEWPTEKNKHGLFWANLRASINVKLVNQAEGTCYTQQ
Sequence of TLR1/TLR2 (Mus musculus, UniProt Q9EPQ1+Q9QUN7) (Q9QUN7 25-784): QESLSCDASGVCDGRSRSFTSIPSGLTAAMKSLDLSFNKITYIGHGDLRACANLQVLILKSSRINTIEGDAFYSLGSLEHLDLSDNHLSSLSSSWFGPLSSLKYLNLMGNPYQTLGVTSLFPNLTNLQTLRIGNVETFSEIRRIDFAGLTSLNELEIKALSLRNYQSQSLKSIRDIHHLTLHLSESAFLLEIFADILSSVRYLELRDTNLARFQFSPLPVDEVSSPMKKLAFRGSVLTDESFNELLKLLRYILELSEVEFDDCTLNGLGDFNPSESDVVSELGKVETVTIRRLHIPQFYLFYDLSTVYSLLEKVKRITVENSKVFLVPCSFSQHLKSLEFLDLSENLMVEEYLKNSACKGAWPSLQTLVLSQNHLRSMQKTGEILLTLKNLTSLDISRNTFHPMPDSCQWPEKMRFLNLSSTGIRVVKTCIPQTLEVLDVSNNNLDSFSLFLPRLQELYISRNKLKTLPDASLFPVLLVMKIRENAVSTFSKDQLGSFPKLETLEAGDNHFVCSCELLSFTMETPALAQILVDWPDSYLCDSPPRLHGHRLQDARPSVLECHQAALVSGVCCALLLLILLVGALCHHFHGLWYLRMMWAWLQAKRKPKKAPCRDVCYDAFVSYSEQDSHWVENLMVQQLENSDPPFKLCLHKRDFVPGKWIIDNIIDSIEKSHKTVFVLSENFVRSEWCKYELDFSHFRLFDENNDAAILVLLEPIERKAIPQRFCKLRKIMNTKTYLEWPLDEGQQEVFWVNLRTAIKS
Procedure: Thioglycolate-elicited macrophages were recovered 4 days after i.p. injection of 2 mL BBL thioglycolate medium, brewer modified (4%; BD Biosciences) by peritoneal lavage with 5 mL phosphate buffered saline (PBS). […] Cells were seeded onto 96-well plates at 1×10^3 cells per well and treated with systematically varied concentrations of the candidate compounds (dissolved in DMSO, and final assay DMSO concentrations (0.5%) were kept constant in all experiments) for 4 h. Ultra-pure LPS (dissolved in H2O, Enzo Life Sciences) was assessed alongside the compounds as a positive control and DMSO treated controls. […] Mouse TNF-α in the supernatants was measured by ELISA kits according to the manufacturer's instructions (eBioscience). EC50's were calculated by Graphpad Prism. All data is mean of duplicates and SD is within ±10% of mean. Mouse cells were from wild type C57BL/6J mice.

[2] = target: TLR1/TLR2 (Homo sapiens, UniProt O60603+Q15399); assay: TNF-α release from PMA-differentiated human THP-1 cells (ELISA); settings: for Emax: THP-1, 4 h, read-out: Efficacy (magnitude) of response versus diprovocim-1 (100%), THP-1; for EC50: read-out: EC50 (nM) (THP-1): EC50 TNF-α release from human THP-1 cells;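 as to all read-outs here: cells exposed to graded compound concentrations for 4 h, TNF-α quantified in supernatant, LPS as positive and DMSO as negative control, values are duplicate means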
Sequence of TLR1/TLR2 (Homo sapiens, UniProt O60603+Q15399) (Q15399 25-786): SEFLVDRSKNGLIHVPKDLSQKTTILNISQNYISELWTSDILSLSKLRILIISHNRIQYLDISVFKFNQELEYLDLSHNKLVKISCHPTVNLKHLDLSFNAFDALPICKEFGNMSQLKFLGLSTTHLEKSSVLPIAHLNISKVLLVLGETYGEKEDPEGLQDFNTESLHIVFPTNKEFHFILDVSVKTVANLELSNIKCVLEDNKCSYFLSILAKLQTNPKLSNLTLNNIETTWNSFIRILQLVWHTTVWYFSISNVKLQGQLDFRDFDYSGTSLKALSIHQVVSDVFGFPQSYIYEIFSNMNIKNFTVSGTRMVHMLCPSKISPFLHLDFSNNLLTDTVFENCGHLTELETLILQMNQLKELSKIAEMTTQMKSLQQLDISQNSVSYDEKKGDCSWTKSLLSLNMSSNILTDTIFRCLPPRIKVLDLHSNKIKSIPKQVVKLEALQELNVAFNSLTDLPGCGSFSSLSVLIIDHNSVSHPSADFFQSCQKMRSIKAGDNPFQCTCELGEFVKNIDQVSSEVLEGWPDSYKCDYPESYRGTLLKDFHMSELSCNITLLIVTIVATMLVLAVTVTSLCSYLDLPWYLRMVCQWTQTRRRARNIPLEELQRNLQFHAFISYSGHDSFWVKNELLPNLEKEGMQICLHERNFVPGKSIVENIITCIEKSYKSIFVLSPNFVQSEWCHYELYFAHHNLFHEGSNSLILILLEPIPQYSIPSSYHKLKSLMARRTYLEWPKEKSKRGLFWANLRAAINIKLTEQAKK
Sequence of TLR1/TLR2 (Homo sapiens, UniProt O60603+Q15399) (O60603 21-784): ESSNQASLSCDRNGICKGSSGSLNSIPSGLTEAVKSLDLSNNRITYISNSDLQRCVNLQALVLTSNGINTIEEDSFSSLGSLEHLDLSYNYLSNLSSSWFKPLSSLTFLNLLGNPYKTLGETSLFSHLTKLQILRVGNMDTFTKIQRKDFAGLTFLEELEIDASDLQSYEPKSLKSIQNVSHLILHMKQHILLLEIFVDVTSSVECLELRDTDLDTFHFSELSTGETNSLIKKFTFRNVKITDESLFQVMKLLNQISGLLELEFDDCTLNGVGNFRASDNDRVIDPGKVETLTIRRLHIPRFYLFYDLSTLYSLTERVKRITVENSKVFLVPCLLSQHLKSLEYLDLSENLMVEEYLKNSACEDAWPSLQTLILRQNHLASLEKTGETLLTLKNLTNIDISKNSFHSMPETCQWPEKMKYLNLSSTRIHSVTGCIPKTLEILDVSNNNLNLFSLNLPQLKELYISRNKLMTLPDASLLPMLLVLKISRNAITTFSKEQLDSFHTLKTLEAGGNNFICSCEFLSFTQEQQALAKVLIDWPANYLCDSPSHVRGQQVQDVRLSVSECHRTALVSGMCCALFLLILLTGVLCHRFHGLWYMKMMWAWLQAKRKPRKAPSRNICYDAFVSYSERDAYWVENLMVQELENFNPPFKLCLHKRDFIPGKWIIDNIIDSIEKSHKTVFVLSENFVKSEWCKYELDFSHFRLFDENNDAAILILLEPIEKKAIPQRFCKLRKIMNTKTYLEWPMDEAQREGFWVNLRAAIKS

SMILES	Emax [1]	EC50 ([1]; Table 3)	Emax [2]	EC50 ([2]; Table 3)	EC50 ([1]; Table 1)	EC50 ([2]; Table 1)	EC50 ([1]; Table 5)	EC50 ([2]; Table 5)	EC50 ([1]; Table 6)	EC50 ([2]; Table 6)
CC(C)(C)OC(=O)NCCOCCCCCCCCCCCCNC(=O)[C@@H]1CN(C(=O)c2ccc(C(=O)N3C[C@@H](C(=O)N[C@H]4C[C@@H]4c4ccccc4)[C@H](C(=O)N[C@H]4C[C@@H]4c4ccccc4)C3)cc2)C[C@H]1C(=O)N[C@H]1C[C@@H]1c1ccccc1 [Compound 48, tert-Butyl (2-((12-((3S,4S)-1-(4-((3S,4S)-3,4-bis(((1S,2R)-2-phenylcyclopropyl)carbamoyl)-pyrrolidine-1-carbonyl)-benzoyl)-4-(((1S,2R)-2-phenylcyclopropyl)carbamoyl)pyrrolidine-3-carbox-amido)dodecyl)oxy)ethyl)carbamate]	220%	6.3 nM	100%	3 nM						
COC(=O)CNC(=O)OCCCCCCCCCCCCNC(=O)[C@@H]1CN(C(=O)c2ccc(C(=O)N3C[C@@H](C(=O)N[C@H]4C[C@@H]4c4ccccc4)[C@H](C(=O)N[C@H]4C[C@@H]4c4ccccc4)C3)cc2)C[C@H]1C(=O)N[C@H]1C[C@@H]1c1ccccc1 [Compound 50, Methyl 2-((((12-((3S,4S)-1-(4-((3S,4S)-3,4-bis-(((1S,2R)-2-phenylcyclopropyl)carbamoyl)pyrrolidine-1-carbonyl)benzoyl)-4-(((1S,2R)-2-phenylcyclopropyl)-carbamoyl)pyrrolidine-3-carboxamido)dodecyl)oxy)-carbonyl)amino)acetate]	90%	6 nM	90%	0.2 nM						
NCCCCCCCCCCCCNC(=O)[C@@H]1CN(C(=O)c2ccc(C(=O)N3C[C@@H](C(=O)N[C@H]4C[C@@H]4c4ccccc4)[C@H](C(=O)N[C@H]4C[C@@H]4c4ccccc4)C3)cc2)C[C@H]1C(=O)N[C@H]1C[C@@H]1c1ccccc1 [Compound 16, (3S,4S)—N^3-(12-Aminododecyl)-1-(4-((3S,4S)-3,4-bis-(((1S,2R)-2-phenylcyclopropyl)carbamoyl)-pyrrolidine-1-carbonyl)benzoyl)-N^4-((1S,2R)-2-phenylcyclopropyl)-pyrrolidine-3,4-dicarboxamide]	130%		140%		10 nM	0.8 nM				
CSCC[C@H](NC(=O)OC(C)(C)C)C(=O)OCCCCCCCCCCCCNC(=O)[C@@H]1CN(C(=O)c2ccc(C(=O)N3C[C@@H](C(=O)N[C@H]4C[C@@H]4c4ccccc4)[C@H](C(=O)N[C@H]4C[C@@H]4c4ccccc4)C3)cc2)C[C@H]1C(=O)N[C@H]1C[C@@H]1c1ccccc1 [Compound 67, (S)-12-((3S,4S)-1-(4-((3S,4S)-3,4-Bis(((1S,2R)-2-phenylcyclopropyl)carbamoyl)pyrrolidine-1-carbonyl)-benzoyl)-4-(((1S,2R)-2-phenylcyclopropyl)carbamoyl)-pyrrolidine-3-carboxamido)-dodecyl 2-((tert-butoxy-carbonyl)amino)-4-(methylthio)butanoate]	150%		100%				44 nM	2.8 nM		
CC(C)(C)OC(=O)/C=C/C(=O)NCC(=O)OCCCCCCCCCCCCNC(=O)[C@@H]1CN(C(=O)c2ccc(C(=O)N3C[C@@H](C(=O)N[C@H]4C[C@@H]4c4ccccc4)[C@H](C(=O)N[C@H]4C[C@@H]4c4ccccc4)C3)cc2)C[C@H]1C(=O)N[C@H]1C[C@@H]1c1ccccc1 [Compound 81, (E)-tert-Butyl 4-((2-((12-((3S,4S)-1-(4-((3S,4S)-3,4-bis(((1S,2R)-2-phenylcyclopropyl)carbamoyl)-pyrrolidine-1-carbonyl)benzoyl)-4-(((1S,2R)-2-phenylcyclopropyl)carbamoyl)pyrrolidine-3-carboxamido)dodecyl)oxy)-2-oxoethyl)amino)-4-oxobut-2-enoate]	110%		90%						62 nM	2 nM
